US20210198204A1, “PRODRUGS OF KALLIKREIN INHIBITORS” (BioCryst Pharmaceuticals, Inc., priority 2016, published 2021)

assay: Plasma pharmacokinetics of the parent compound after a single oral dose of prodrug; format: in vivo; conditions: single oral dose 10 mg/kg, fasted male Sprague Dawley rats; plasma analyzed for the parent compound; study duration 8 h
Procedure, shortened: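 Three male Sprague Dawley rats, housed in metabolic cages and fasted about 15 hours, were weighed and received one oral gavage dose of 10 mg/kg as a solution in water or water/propylene glycol. Blood (approximately 500 μL) went into heparin tubes at set timepoints up to the study duration. Plasma was separated by centrifugation at 14,000 rpm for 3 min at 4° C, stored below −70° C, and assayed for the parent compound.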

| SMILES | AUC0-last hour (area under the curve) |
| --- | --- |
| C=Cc1cc(C(=O)Nc2ccc(C(=N)NC(=O)OCCCCCC)cc2)c(-c2ccc(C(=O)NCC3CC3)nc2C(=O)OC(C)OC(=O)OC(C)CO)cc1OC (stereo not shown) [Compound 100e, 1-((((1-hydroxypropan-2-yl)oxy)carbonyl)oxy)ethyl 6-((cyclopropylmethyl)carbamoyl)-3-(2-((4-(N-((hexyloxy)carbonyl)carbamimidoyl)phenyl)carbamoyl)-5-methoxy-4-vinylphenyl)picolinate] | B (B = 1,001-10,000 ng/mL) |
| C=Cc1cc(C(=O)Nc2ccc(C(=N)NC(=O)OCCOC(=O)[C@@H](N)C(C)C)cc2)c(-c2ccc(C(=O)NCC3CC3)nc2C(=O)OC(C)OC(=O)C(C)C)cc1OC (stereo partly drawn) [Compound 101e, 1-(isobutyryloxy)ethyl 3-(2-((4-(N-((2-(((S)-2-amino-3-methylbutanoyl)oxy)ethoxy)carbonyl)carbamimidoyl)phenyl)carbamoyl)-5-methoxy-4-vinylphenyl)-6-((cyclopropylmethyl)carbamoyl)picolinate] | A (A = 0-1,000 ng/mL) |
| C=Cc1cc(C(=O)Nc2ccc(C(=N)NC(=O)OCCCCCN)cc2)c(-c2ccc(C(=O)NCC3CC3)nc2C(=O)OC(C)OC(=O)C(C)C)cc1OC (stereo not shown) [Compound 102d, 1-(isobutyryloxy)ethyl 3-(2-((4-(N-(((5-aminopentyl)oxy)carbonyl)carbamimidoyl)phenyl)carbamoyl)-5-methoxy-4-vinylphenyl)-6-((cyclopropylmethyl)carbamoyl)picolinate] | A (A = 0-1,000 ng/mL) |
| C=Cc1cc(C(=O)Nc2ccc(C(=N)NC(=O)OC[C@@H]3CCC(=O)N3)cc2)c(-c2ccc(C(=O)NCC3CC3)nc2C(=O)OC(C)OC(=O)C(C)C)cc1OC (stereo partly drawn) [Compound 103c, 1-(isobutyryloxy)ethyl 6-((cyclopropylmethyl)carbamoyl)-3-(5-methoxy-2-((4-(N—((((S)-5-oxopyrrolidin-2-yl)methoxy)carbonyl)carbamimidoyl)phenyl)carbamoyl)-4-vinylphenyl)picolinate] | A (A = 0-1,000 ng/mL) |
| C=Cc1cc(C(=O)Nc2ccc(C(=N)NC(=O)OC(C)COC(=O)CCCC[C@H]3SCC4NC(=O)NC43)cc2)c(-c2ccc(C(=O)NCC3CC3)nc2C(=O)OC(C)OC(=O)OC(C)C)cc1OC (stereo partly drawn) [Compound 104b, 1-((isopropoxycarbonyl)oxy)ethyl 6-((cyclopropylmethyl)carbamoyl)-3-(5-methoxy-2-((4-(N-(((1-((5-((4R)-2-oxohexahydro-1H-thieno[3,4-d]imidazol-4-yl)pentanoyl)oxy)propan-2-yl)oxy)carbonyl)carbamimidoyl)phenyl)carbamoyl)-4-vinylphenyl)picolinate] | A (A = 0-1,000 ng/mL) |

Now from value to compound:

| AUC0-last hour (area under the curve) | SMILES |
| --- | --- |
| B (B = 1,001-10,000 ng/mL) | C=Cc1cc(C(=O)Nc2ccc(C(=N)NC(=O)OCc3oc(=O)oc3C)cc2)c(-c2ccc(C(=O)NCC3CC3)nc2C(=O)OC(C)OC(=O)C(C)C)cc1OC (stereo not shown) [Compound 117b, 1-(isobutyryloxy)ethyl 6-((cyclopropylmethyl)carbamoyl)-3-(5-methoxy-2-((4-(N-(((5-methyl-2-oxo-1,3-dioxol-4-yl)methoxy)carbonyl)carbamimidoyl)phenyl)carbamoyl)-4-vinylphenyl)picolinate] |
| A (A = 0-1,000 ng/mL) | C=Cc1cc(C(=O)Nc2ccc(C(=N)NC(=O)OCc3oc(=O)oc3C)cc2)c(-c2ccc(C(=O)NCC3CC3)nc2C(=O)OCOC(=O)[C@@H](N)C(C)C)cc1OC [Compound 118c, (S)-((2-amino-3-methylbutanoyl)oxy)methyl 6-((cyclopropylmethyl)carbamoyl)-3-(5-methoxy-2-((4-(N-(((5-methyl-2-oxo-1,3-dioxol-4-yl)methoxy)carbonyl)carbamimidoyl)phenyl)carbamoyl)-4-vinylphenyl)picolinate] |
